According to US8101732B2, “Methods of producing validamycin A analogs and uses thereof” (State of Oregon acting by and through the State Board of …, priority 2008, dated 2012):

Test system: Pellicularia sasakii (=R. solani)
Assay: Fungal growth inhibitory assay (agar plug assay)
Format: cell-based
Details: growth monitored after two days, FIG. 4
Procedure: Fungal growth inhibitory assay of 1,1′-bis-valienamine (3) and validienamycin (4): 1% agar (14 mL) was mixed with the compounds (dissolved in 1 mL H2O) and then plated into Petri dishes. Discs of PDA agar with mycelia of Pellicularia sasakii were placed in the center of the above plates as the indicator strain for bioassay of the compounds. The plates were incubated at 30° C. for 2 days.
Antifungal activity assays of compounds 3 and 4 were tested against Pellicularia sasakii (=R. solani) using an agar plug assay (Minagawa et al., Chembiochem 8: 632-641, 2007). Agar plugs with diameter of 5 mm and containing P. sasakii mycelia were placed in the center of agar plates that contain each compound and the growth of the pathogen was monitored after two days. Active compounds were determined based on their ability to inhibit the expansion of the fungal mycelia on the Petri dishes.

Row | SMILES | fungistatic activity (inhibition of expansion of the fungal mycelia) (0.2 mM concentration in agar plate) | fungistatic activity (inhibition of expansion of the fungal mycelia) (lower concentration (0.02 mM) in agar plate)
1 | OCC1=C[C@H](N[C@H]2C=C(CO)[C@@H](O)[C@H](O)[C@H]2O)[C@H](O)[C@@H](O)[C@@H]1O [Compound 4, validienamycin] | comparable fungistatic activity with 1 and 2 | 
2 | OCC1=C[C@H](N[C@H]2C[C@H](CO)[C@@H](O[C@@H]3OC(CO)[C@@H](O)C(O)[C@H]3O)[C@H](O)[C@H]2O)[C@H](O)[C@@H](O)[C@@H]1O (some centres unmarked) [Compound 1, validamycin A] |  | the most active compound among those evaluated
